Experimental findings from US20240425515A1, “COMPOUND OF THE 7A,8,9,10,11,11A-HEXAHYDRO-1H,7H-PYRANO[2,3-C]XANTHENE TYPE, METHOD OF PREPARATION THEREOF, INTERMEDIATES THEREOF AND THERAPEUTIC APPLICATIONS THEREOF” (CENTRE NATIONAL DE LA RECHERCHE SCIENTIFIQUE, priority 2021, published 2024) are described below.

What is called Ki is the dissociation constant of the complex between target and ligand, obtained from inhibition or displacement. Broadly, the IC50 is the concentration needed to halve the response being measured. A lower IC50 goes with greater potency in that assay.

Data set [1] deals with ORD domain (OSBP-Related Domain) of the protein OSBP (Homo sapiens (Human), UniProt P22059). Description: Inhibition of DHE transport between liposomes catalyzed by the purified ORD domain of OSBP (FRET, robotized assay). It counts as biochemical. The following applies: purified ORD domain 200 nM, liposomes 130 μM, 37° C., compound 50 nM to 3 μM, triplicate; read-out: Affinity for the target OSBP (Ki). Here is the method:
Measurement of the inhibitory activity on OSBP is carried out by a robotized assay in the ORD domain (OSBP-Related Domain, in English) purified of the protein OSBP. The measurements are carried out according to a protocol using two preparations of liposomes: • The donor liposomes (A) contain a fluorescent sterol (DHE (dehydroergosterol)); • The acceptor liposomes (B) contain a fluorescent lipid (dansyl PE (1,2-dioleoyl-sn-glycero-3-phosphoethanolamine-N-(5-dimethylamino-1-naphthalenesulfonyl) (ammonium salt)) whose excitation spectrum covers the emission spectrum of DHE.
Transport of DHE from liposomes A to liposomes B catalyzed by the ORD domain is accompanied by a FRET signal between DHE and Dansyl-PE. Based on this signal, the kinetics of transport can be measured in real time. This measurement of fluorescence is carried out on a microplate in a TECAN Infinite 1000 Pro instrument (temperature=37° C.). At the beginning, each measurement well contains liposomes B (130 μM), ORD domain (200 nM) and the test compound. At time t=5 min, liposomes A (130 μM) are added to start the exchange reaction. Each compound is tested in triplicate for final concentrations from 50 nM to 3 μM. The time constant (k) obtained for the kinetics in each case is then represented as a function of the concentration of the analog. From this representation, an inhibition constant is determined for each compound. The affinity constants Ki are classified as follows: • Very strong affinity Ki<10 nM • Good affinity Ki from 10 to 100 nM • Low affinity Ki from 100 to 2000 nM
The compounds, other than the prodrugs, having a Ki<100 nM are regarded as active on OSBP.

Data set [2] concerns human glioblastoma cells U87-MG. The data set can be described thus: Cytotoxicity on U87-MG, CellTiter Glo viability after 72 h. It counts as cell-based. The following applies: U-87 MG. Here is the method: (§1) The lines U87-MG and A549 were obtained from the American Type Culture Collection (Rockville, MD, USA) and were cultured according to the supplier's instructions. The human glioblastoma cells U87-MG were cultured in Dulbecco […] (DMEM) containing 10% of FCS and 1% of L-glutamine. The lung cancer cells A549 were cultured in RPMI1640 medium containing 10% of FCS and 1% of L-glutamine. The cell lines were maintained at 37° C. in a humidified atmosphere containing 5% CO2. The products were tested at 10 concentrations in triplicate and the cellular viability was evaluated after 72 h of treatment using the CellTiter Glo assay (Promega), which allows the number of live cells to be measured by luminescence (quantification of ATP).
(§2) Thus, the cells were seeded in 96-well plates (2.5×10^3 cells/well) each containing 90 μL of growth medium. After culture for 24 hours, the wells were supplemented with 10 μL of medium containing ten decreasing concentrations of the test compound dissolved in DMSO (less than 0.1% in each preparation). After incubation for 72 h, 100 μL of Cell Titer GLo reagent was added in the space of 15 min before quantifying the luminescence emitted using a microplate reader. The dose-response curve was analyzed using Graph Prism software and the activity of the molecules is expressed in the form of IC50.

For another data set, the system named is lung cancer cells A549. The data set can be described thus: Cytotoxicity on A549, CellTiter Glo viability after 72 h. It counts as cell-based. The following applies: Homo sapiens, A549, 72 h. Here is the method:
as §1, §2
On the technique in general: Cellular ATP, detected with luciferase, serves as a proxy for viable cell number.

Data set [3] can be described thus: Stability in mouse plasma (UPLC-MS/MS). The following applies: 2.5 μM. Type of data set: in vitro ADME. Here is the method:
(§3) The compounds are placed in mouse plasma and mouse microsomes, and their stability is evaluated by monitoring by UPLC-MS/MS.
(§4) For plasma stability, the concentration tested is 2.5 μM and the incubation volume is 50 μL. The incubation times are 0, 15, 30, 45, 60 and 120 minutes. Protein precipitation is then performed on the samples, and then the latter are analyzed by UPLC-MS/MS. The percentage of the compound remaining as well as its elimination half-life are thus obtained. For the metabolic stability in microsomes, the concentration of test compound is 2.5 μM, and the incubation volume is 400 μL. The concentration of mouse microsomes is 0.5 mg/mL. The incubation times are 0, 15, 30 and 45 minutes. The cofactor used is NADPH. Two negative controls are carried out, one without microsomes and without cofactor at 0 and 45 minutes, and one without cofactor and with microsome at 0 and 45 minutes. A positive control is carried out in the presence of diphenhydramine. The samples are analyzed by LC-MS/MS. The intrinsic clearance and the half-life are thus obtained.
(§5) LC-MS/MS is carried out on a UPLC Acquity™ coupled to a XEVO TQ-S(WATERS).
(§6) Liquid chromatography is carried out on an Acquity UPLC column BEH 1.7 μm, 2.1×50 mm with a gradient of 4 minutes water+0.1% […]/acetonitrile 95:5 to 100:0. The column temperature is +50° C. and the temperature of the injector is +4° C. Acquisition in mass spectrometry is performed by MRM (Multiple Reaction Monitoring), with positive electrospray ionization.

Data set [4] in a line: Metabolic stability in mouse hepatic microsomes (LC-MS/MS). Type of data set: in vitro ADME. The following applies: mouse microsomes 0.5 mg/mL, 2.5 μM, NADPH. On the procedure:
as §3, §4, §5, §6

Sequence of ORD domain (OSBP-Related Domain) of the protein OSBP (P22059 401-807): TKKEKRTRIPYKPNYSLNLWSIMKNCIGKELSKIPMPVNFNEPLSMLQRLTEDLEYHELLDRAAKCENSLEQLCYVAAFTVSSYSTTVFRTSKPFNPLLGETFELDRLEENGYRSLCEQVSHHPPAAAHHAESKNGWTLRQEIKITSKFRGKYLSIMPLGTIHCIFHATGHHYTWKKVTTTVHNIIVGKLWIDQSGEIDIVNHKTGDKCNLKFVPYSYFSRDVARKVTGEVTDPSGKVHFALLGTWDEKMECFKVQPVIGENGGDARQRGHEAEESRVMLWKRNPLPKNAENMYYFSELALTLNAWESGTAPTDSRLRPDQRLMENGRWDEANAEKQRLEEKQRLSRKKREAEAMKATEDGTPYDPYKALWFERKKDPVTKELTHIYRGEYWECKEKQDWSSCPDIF

For `COCOc1cc2oc(-c3ccccc3)cc(=O)c2c2c1C[C@@H]1C(C)(C)[C@H](OCOC)CC[C@@]1(C)O2` (racemic) [Compound 2, (7aR*,9R*,11aR*)-6,9-bis(methoxymethoxy)-8,8,11a-trimethyl-3-phenyl-7a,8,9,10,11,11a-hexahydro-1H,7H-pyrano[2,3-c]xanthen-1-one], the Ki in data set [1] lay in the range of 100 to 2000 nM. Moreover, the IC50 was greater than 10000 nM in data set [2] and greater than 10 µM in the data set with lung cancer cells A549.
On to `CC1(C)[C@H](O)CC[C@@]2(C)Oc3c(c(O)cc4oc(-c5ccccc5)cc(=O)c34)C[C@H]12` [Compound 5, (7aR,9R,11aR)-6,9-dihydroxy-8,8,11a-trimethyl-3-phenyl-7a,8,9,10,11,11a-hexahydro-1H,7H-pyrano[2,3-c]xanthen-1-one], for which the Ki in data set [1] was less than 10 nM. The IC50 in data set [2] came to 280 nM; in the data set with lung cancer cells A549 it was 1.38 µM.
Take `COCOc1cc2oc(-c3ccccc3)cc(=O)c2c2c1C[C@@H]1C(C)(C)[C@H](O)CC[C@@]1(C)O2` [Compound 4, (7aR,9R,11aR)-9-hydroxy-6-(methoxymethoxy)-8,8,11a-trimethyl-3-phenyl-7a,8,9,10,11,11a-hexahydro-1H,7H-pyrano[2,3-c]xanthen-1-one]: in data set [1], the Ki was 10 to 100 nM. Moreover, in data set [2], the IC50 amounted to 440 nM.
Turning to `COCOc1ccc(-c2oc3cc(OCOC)c4c(c3c(=O)c2OCOC)O[C@]2(C)CC[C@@H](O)C(C)(C)[C@H]2C4)cc1` [Compound 10, (7aR,9R,11aR)-9-hydroxy-2,6-bis(methoxymethoxy)-3-(4-(methoxymethoxy)phenyl). 8,8,11a-trimethyl-7a,8,9,10,11,11a-hexahydro-1H,7H-pyrano[2,3-c]xanthen-1-one], the IC50 in data set [2] is 4340 nM. Moreover, the “metabolic stability in mouse plasma at 120 minutes (percentage of compound remaining)” value in data set [3] was 90%. In data set [4], the “clearance in microsomal medium (intrinsic clearance)” value (shortened to “clearance in microsomal medium”) is on record as 52 μL/min/mg of protein and the “metabolic stability in mouse microsomes” value worked out at 99%.
For `CC1(C)[C@@H](O)CC[C@]2(C)Oc3c(c(O)cc4oc(-c5ccccc5)cc(=O)c34)C[C@@H]12` [Compound 7, (7aS,9S,11aS)-6,9-dihydroxy-8,8,11a-trimethyl-3-phenyl-7a,8,9,10,11,11a-hexahydro-1H,7H-pyrano[2,3-c]xanthen-1-one], the Ki in data set [1] is less than 10 nM. Moreover, 1890 nM corresponded to half-maximal inhibition in data set [2] (IC50).
Turning to `CC1(C)[C@H](O)CC[C@@]2(C)Oc3c(c(O)cc4oc(-c5ccc(O)cc5)cc(=O)c34)C[C@H]12` [Compound 9, (7aR,9R,11aR)-6,9-dihydroxy-3-(4-hydroxyphenyl)-8,8,11a-trimethyl-7a,8,9,10,11,11a-hexahydro-1H,7H-pyrano[2,3-c]xanthen-1-one], the IC50 in data set [2] turned out to be 3780 nM. In addition, the “metabolic stability in mouse plasma at 120 minutes (percentage of compound remaining)” value in data set [3] is on record as 100%. In data set [4], the “clearance in microsomal medium” value is given as 26 μL/min/mg of protein and the “metabolic stability in mouse microsomes” value is given as 100%.
As for `COCOc1cc2oc(-c3ccccc3)cc(=O)c2c2c1C[C@@H]1C(C)(C)[C@H](O)CC[C@@]1(C)O2` (racemic) [Compound 1, (7aR*9R*,11aR*)-9-hydroxy-6-(methoxymethoxy)-8,8,11a-trimethyl-3-phenyl-7a,8,9,10,11,11a-hexahydro-1H,7H-pyrano[2,3-c]xanthen-1-one], the Ki in data set [1] was less than 10 nM. For the same compound, the IC50 is 540 nM in data set [2] and 5.08 µM in the data set on lung cancer cells A549.
Consider `COCOc1ccc(-c2cc(=O)c3c4c(c(OCOC)cc3o2)C[C@@H]2C(C)(C)[C@H](O)CC[C@@]2(C)O4)cc1` [Compound 8, (7aR,9R,11aR)-9-hydroxy-6-(methoxymethoxy)-3-(4-(methoxymethoxy)phenyl)-8,8,11a-trimethyl-7a,8,9,10,11,11a-hexahydro-1H,7H-pyrano[2,3-c]xanthen-1-one], for which the Ki in data set [1] lay in the range of 10 to 100 nM. In data set [2], this compound displayed a concentration for half-maximal inhibition (IC50) of 160 nM.
With `COCOc1cc2oc(-c3ccccc3)cc(=O)c2c2c1C[C@H]1C(C)(C)[C@@H](O)CC[C@]1(C)O2` [Compound 6, (7aS,9S,11aS)-9-hydroxy-6-(methoxymethoxy)-8,8,11a-trimethyl-3-phenyl-7a,8,9,10,11,11a-hexahydro-1H,7H-pyrano[2,3-c]xanthen-1-one], the Ki in data set [1] lay in the range of 100 to 2000 nM. Besides, the figures for the IC50 (in data set [2]; with lung cancer cells A549) were 4310 nM and greater than 10 µM, respectively.
With `CC1(C)[C@H](O)CC[C@@]2(C)Oc3c(c(O)cc4oc(-c5ccccc5)cc(=O)c34)C[C@H]12` (racemic) [Compound 3, (7aR*,9R*,11aR*)-6,9-dihydroxy-8,8,11a-trimethyl-3-phenyl-7a,8,9,10,11,11a-hexahydro-1H,7H-pyrano[2,3-c]xanthen-1-one], the inhibitory constant (Ki) in data set [1] is less than 10 nM. Also, the figures for the IC50 (in data set [2]; in the data set with lung cancer cells A549) were 340 nM and 3.4 µM, respectively. For the same compound, the “metabolic stability in mouse plasma at 120 minutes (percentage of compound remaining)” value in data set [3] was 99%. In addition, the “clearance in microsomal medium” value in data set [4] is given as 152 μL/min/mg of protein. Moreover, in data set [4], the “metabolic stability in mouse microsomes” value is recorded as 88%.
On to `CC1(C)[C@H](O)CC[C@@]2(C)Oc3c(c(O)cc4oc(-c5ccc(O)cc5)c(O)c(=O)c34)C[C@H]12` [Compound 11, (7aR,9R,11aR)-2,6,9-trihydroxy-3-(4-hydroxyphenyl)-8,8,11a-trimethyl-7a,8,9,10,11,11a-hexahydro-1H,7H-pyrano[2,3-c]xanthen-1-one], for which the IC50 in data set [2] turned out to be 2300 nM; in the data set with lung cancer cells A549, 6.3 µM.
